This passage reports IC50 and Ki results from BindingDB's records for doi:10.1021/acs.jmedchem.9b00021 (2019).

This experiment addresses T1, Menin (Homo sapiens, UniProt O00255).
T1 sequence (O00255 whole entry): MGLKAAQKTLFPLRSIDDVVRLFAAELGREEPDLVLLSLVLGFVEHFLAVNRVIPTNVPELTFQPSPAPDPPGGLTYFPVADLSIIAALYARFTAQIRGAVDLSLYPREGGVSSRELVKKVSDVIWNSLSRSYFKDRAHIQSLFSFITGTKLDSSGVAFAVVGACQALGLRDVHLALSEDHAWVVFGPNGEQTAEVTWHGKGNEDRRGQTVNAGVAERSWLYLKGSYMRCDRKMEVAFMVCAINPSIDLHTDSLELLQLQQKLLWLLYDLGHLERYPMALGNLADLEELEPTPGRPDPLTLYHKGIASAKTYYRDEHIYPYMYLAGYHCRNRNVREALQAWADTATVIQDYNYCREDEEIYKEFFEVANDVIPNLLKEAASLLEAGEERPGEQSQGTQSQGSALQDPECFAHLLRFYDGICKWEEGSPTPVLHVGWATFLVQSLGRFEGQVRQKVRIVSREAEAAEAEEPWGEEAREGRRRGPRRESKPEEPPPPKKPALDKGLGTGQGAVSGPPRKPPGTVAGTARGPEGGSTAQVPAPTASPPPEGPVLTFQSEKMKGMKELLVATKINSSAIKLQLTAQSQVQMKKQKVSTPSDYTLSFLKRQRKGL
The experiment in a line: Inhibition of FAM-probe binding to Menin (unknown origin) after 60 mins by fluorescence polarization competitive binding assay. (In general: Polarisation of emitted light reports the rotation of a fluorescent probe.)

The compound `CC(=O)O[C@@H]1CCC[C@H]1[C@](C#N)(c1ccccc1)C1CCN(CC2CN(c3ccc(C#N)cc3)C2)CC1` registered a half-inhibitory concentration (IC50) of 3500 nM and an inhibitory constant (Ki) of 1100 nM.

For orientation: IC50 means the point on the concentration scale where inhibition reaches its midpoint. Lower therefore signals inhibition by little substance. For orientation: Ki means the dissociation constant of the complex between target and ligand, obtained from inhibition or displacement.
